From ChEMBL document CHEMBL1158983, “Toxins Produced by the Dogwood Anthracnose Fungus Discula sp” (1991)
Calls of active or inactive are those of the source. The calls are words filed in the database; no cut-off is given here.

Columns and labels:
Type in all cases: functional
Cornus florida [1] = assay: Phytotoxicity against Dogwood NCPV 102 assessed as leaf necrotic lesions at 50 ug by detached leaf spot method
Datura stramonium = assay: Phytotoxicity against Jimsonweed assessed as leaf necrotic lesions at 100 ug by detached leaf spot method
Cornus florida [2] = assay: Phytotoxicity against Dogwood NCPV 101 assessed as leaf necrotic lesions at 50 ug by detached leaf spot method
Penicillium chrysogenum = assay: Antimicrobial activity against Penicillium notatum at 500 ug/disk; conditions: for zone of inhibition at 500 µg/disc: read-out: IZ
Colletotrichum acutatum = assay: Antimicrobial activity against Colletotrichum acutatum at 500 ug/disk; conditions: for zone of inhibition at 500 µg/disc: read-out: IZ
Aspergillus flavus = assay: Antimicrobial activity against Aspergillus flavus at 500 ug/disk; conditions: for zone of inhibition at 500 µg/disc: read-out: IZ
[3] = system: Pectobacterium carotovorum; assay: Antimicrobial activity against Erwinia carotovora at 500 ug/disk; conditions: for zone of inhibition at 500 µg/disc: read-out: IZ
Escherichia coli = assay: Antimicrobial activity against Escherichia coli at 500 ug/disk; conditions: for zone of inhibition at 500 µg/disc: read-out: IZ
Sida spinosa = assay: Phytotoxicity against Prickly sida assessed as leaf necrotic lesions at 100 ug by detached leaf spot method
Sorghum = assay: Phytotoxicity against Sorghum assessed as leaf necrotic lesions at 100 ug by detached leaf spot method
[4] = system: Agrobacterium tumefaciens; assay: Antimicrobial activity against Agrobacterium tumefaciens at 500 ug/disk; conditions: for zone of inhibition at 500 µg/disc: read-out: IZ
Nasturtium officinale = assay: Phytotoxicity against watercress assessed as leaf necrotic lesions at 100 ug by detached leaf spot method
[5] = system: Curtobacterium flaccumfaciens; assay: Antimicrobial activity against Corynebacterium flaccumfaciens at 500 ug/disk; conditions: for zone of inhibition at 500 µg/disc: read-out: IZ
Senna obtusifolia = assay: Phytotoxicity against Sicklepod assessed as leaf necrotic lesions at 100 ug by detached leaf spot method
Convolvulaceae = assay: Phytotoxicity against Morning glory assessed as leaf necrotic lesions at 100 ug by detached leaf spot method
Chenopodium album = assay: Phytotoxicity against Lamb's quarters assessed as leaf necrotic lesions at 100 ug by detached leaf spot method
Sorghum halepense = assay: Phytotoxicity against Johnsongrass assessed as leaf necrotic lesions at 100 ug by detached leaf spot method
Ambrosia artemisiifolia = assay: Phytotoxicity against ragweed assessed as leaf necrotic lesions at 100 ug by detached leaf spot method
Cornus florida [6] = assay: Phytotoxicity against Dogwood NCPV 100 assessed as leaf necrotic lesions at 50 ug by detached leaf spot method

Row | SMILES | Activity (Cornus florida [1]) | Activity (Datura stramonium) | Activity (Cornus florida [2]) | Activity (Penicillium chrysogenum) | Activity (Colletotrichum acutatum) | Activity (Aspergillus flavus) | Activity [3] | Activity (Escherichia coli) | Activity (Sida spinosa) | Activity (Sorghum) | Activity [4] | Activity (Nasturtium officinale) | Activity [5] | Activity (Senna obtusifolia) | Activity (Convolvulaceae) | Activity (Chenopodium album) | Activity (Sorghum halepense) | Activity (Ambrosia artemisiifolia) | Activity (Cornus florida [6]) | zone of inhibition at 500 µg/disc (Penicillium chrysogenum) | other results
1 | CC(=O)Oc1cc(O)c2c(c1)C[C@H](C)OC2=O | 1 mm2 | 18 mm2 | 1 mm2 | inactive | inactive | inactive | inactive | inactive | 34 mm2 | 24 mm2 | inactive | 31 mm2 | inactive | 14 mm2 | 13 mm2 | 6 mm2 | 24 mm2 | 30 mm2 | 2 mm2 |  | 
2 | CC(=O)Oc1ccc(C(=O)O)cc1CC=C(C)C | 42 mm2 | 22 mm2 | 23 mm2 |  |  |  |  |  | 36 mm2 | 73 mm2 |  | 48 mm2 |  | 18 mm2 | 19 mm2 | 8 mm2 | 51 mm2 | 38 mm2 | 51 mm2 | 5 mm | zone of inhibition at 500 µg/disc (Colletotrichum acutatum): 6 mm; zone of inhibition at 500 µg/disc (Aspergillus flavus): 5 mm; zone of inhibition at 500 µg/disc [3]: 4 mm; zone of inhibition at 500 µg/disc (Escherichia coli): 0 mm; zone of inhibition at 500 µg/disc [4]: 6 mm; zone of inhibition at 500 µg/disc [5]: 10 mm
3 | O=C(O)c1ccc(O)cc1 [PARABEN] | 5 mm2 | 12 mm2 | 10 mm2 |  |  |  |  |  | 31 mm2 | 19 mm2 |  | 17 mm2 |  | 10 mm2 | 15 mm2 | 9 mm2 | 22 mm2 | 15 mm2 | 11 mm2 | 0 mm | zone of inhibition at 500 µg/disc (Colletotrichum acutatum): 0 mm; zone of inhibition at 500 µg/disc (Aspergillus flavus): 0 mm; zone of inhibition at 500 µg/disc [3]: 0 mm; zone of inhibition at 500 µg/disc (Escherichia coli): 5 mm; zone of inhibition at 500 µg/disc [4]: 0 mm; zone of inhibition at 500 µg/disc [5]: 9 mm
4 | C[C@H]1Cc2cc(O)cc(O)c2C(=O)O1 | 10 mm2 | 24 mm2 | 14 mm2 | inactive | inactive | inactive | inactive | inactive | 40 mm2 | 40 mm2 | inactive | 36 mm2 | inactive | 20 mm2 | 24 mm2 | 14 mm2 | 34 mm2 | 60 mm2 | 7 mm2 |  | 
5 | O=C1CC[C@@H](O)c2cccc(O)c21 | 13 mm2 | 6 mm2 | 5 mm2 | inactive | inactive | inactive | inactive | inactive | 18 mm2 | 7 mm2 | inactive | 14 mm2 | inactive | 2 mm2 | 4 mm2 | 5 mm2 | 13 mm2 | 12 mm2 | 12 mm2 |  | 
6 | CC(C)=CCc1cc(C(=O)O)ccc1O | 24 mm2 | 31 mm2 | 14 mm2 |  |  |  |  |  | 42 mm2 | 75 mm2 |  | 56 mm2 |  | 22 mm2 | 28 mm2 | 23 mm2 | 46 mm2 | 36 mm2 | 38 mm2 | 6 mm | zone of inhibition at 500 µg/disc (Colletotrichum acutatum): 8 mm; zone of inhibition at 500 µg/disc (Aspergillus flavus): 4 mm; zone of inhibition at 500 µg/disc [3]: 5 mm; zone of inhibition at 500 µg/disc (Escherichia coli): 0 mm; zone of inhibition at 500 µg/disc [4]: 8 mm; zone of inhibition at 500 µg/disc [5]: 5 mm
